The text below walks through data of US20250129092A1, “COMPOUNDS USEFUL IN MODULATION OF AHR SIGNALLING” (JAGUAHR THERAPEUTICS PTE LTD, priority 2021, published 2025).

One data set addresses CYP 2C9 (Homo sapiens, UniProt P11712). In words: CYP 2C9. In kind it is in vitro ADME.
The next data set concerns the target CYP 3A4 (Homo sapiens, UniProt P08684). As to the kind of experiment: CYP 3A4. In kind it is in vitro ADME.
The nature of data set [1]: Caco-2 permeability / efflux. It is filed as in vitro ADME. Particulars: human. A general note: Passage across Caco-2 layers is used to estimate intestinal permeability.
Another data set is described as follows: Hepatocytes Clint (Hu). It is filed as in vitro ADME. The following applies: human.
Another data set can be described thus: ChromLogD. It is filed as physicochemical.
The target of data set [2] is T1, AhR (Homo sapiens, UniProt P35869).
T1 sequence (P35869 11-848): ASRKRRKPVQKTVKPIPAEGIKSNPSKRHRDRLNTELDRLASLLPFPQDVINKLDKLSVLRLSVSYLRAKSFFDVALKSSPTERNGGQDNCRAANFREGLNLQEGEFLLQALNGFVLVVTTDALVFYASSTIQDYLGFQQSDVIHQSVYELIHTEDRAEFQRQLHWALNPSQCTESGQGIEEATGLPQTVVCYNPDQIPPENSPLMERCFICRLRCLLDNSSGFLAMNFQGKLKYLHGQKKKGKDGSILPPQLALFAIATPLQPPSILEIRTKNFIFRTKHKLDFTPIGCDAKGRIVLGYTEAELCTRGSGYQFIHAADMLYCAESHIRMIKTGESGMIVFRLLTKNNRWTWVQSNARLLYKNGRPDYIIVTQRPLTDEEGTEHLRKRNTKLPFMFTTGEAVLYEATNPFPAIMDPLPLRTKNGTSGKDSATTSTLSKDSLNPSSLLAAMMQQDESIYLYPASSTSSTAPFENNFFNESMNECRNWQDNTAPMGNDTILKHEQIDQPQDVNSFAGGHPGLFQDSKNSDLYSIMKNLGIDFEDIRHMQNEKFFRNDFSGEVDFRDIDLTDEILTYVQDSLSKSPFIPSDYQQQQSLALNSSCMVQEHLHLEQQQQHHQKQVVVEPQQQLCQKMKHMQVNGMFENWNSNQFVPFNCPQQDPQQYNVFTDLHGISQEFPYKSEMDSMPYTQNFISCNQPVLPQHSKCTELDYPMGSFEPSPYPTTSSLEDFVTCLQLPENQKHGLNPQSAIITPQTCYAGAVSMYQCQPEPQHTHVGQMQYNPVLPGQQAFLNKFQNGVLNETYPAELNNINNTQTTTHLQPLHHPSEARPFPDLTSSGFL
In words: AhR antagonism in U937 cells (Promega P450-Glo assay). It is filed as cell-based. Also noted: endogenous in cells; host or cells: U937 cells. Particulars: CYP1A1 activity readout (Luciferin-CEE), head names VAF347, average, read-out: U937 Antagonist pIC50-VAF347: av. pIC50 (converted). A digest of the protocol: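 Human U937 histiocytic lymphoma cells were seeded in Ultraculture serum free media (Lonza) at 100,000 cells per well in round bottom 96 well plates and exposed to seven test compound concentrations for 24 hrs at 37° C., ≥85% humidity, 5% CO2. AhR antagonism was measured as CYP1A1 activity. After removing supernatant, Luciferin-CEE ([Final] 83 μM) was added for 3 hrs. Detection reagent stopped the reaction, and luminescence was read 20 minutes later.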

Data set [3] has as its target T1, AhR. In words: AhR antagonism in human PBMCs - inhibition of IL-22 release. It is filed as cell-based. Particulars: human PBMCs activated with CD3/CD28 agonist mixture, 72 hrs, IL-22 ELISA; average; read-out: hPBMC Inhibition of CD3/CD28 induced IL-22 release: av. pIC50 (converted). Also noted: endogenous in cells. A digest of the protocol: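 Human PBMCs (1×10^6 cells/ml, 100,000 per well) activated with CD3/CD28 agonist (TransAct); seven compound concentrations added 1 h later (0.2% DMSO final). After 72 h at 37 °C, IL-22 in medium measured by ELISA.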

The nature of a further data set: Kinetic solubility. It is filed as physicochemical. The following applies: kinetic from dmso stock.
For the next data set, the target named is hERG (Homo sapiens, UniProt Q12809). In words: hERG. (In general: The hERG channel carries a current that helps repolarise heart muscle cells.)
The target of another data set is T2, CYP 1A2 (Homo sapiens, UniProt P05177).
T2 sequence (P05177 1-516): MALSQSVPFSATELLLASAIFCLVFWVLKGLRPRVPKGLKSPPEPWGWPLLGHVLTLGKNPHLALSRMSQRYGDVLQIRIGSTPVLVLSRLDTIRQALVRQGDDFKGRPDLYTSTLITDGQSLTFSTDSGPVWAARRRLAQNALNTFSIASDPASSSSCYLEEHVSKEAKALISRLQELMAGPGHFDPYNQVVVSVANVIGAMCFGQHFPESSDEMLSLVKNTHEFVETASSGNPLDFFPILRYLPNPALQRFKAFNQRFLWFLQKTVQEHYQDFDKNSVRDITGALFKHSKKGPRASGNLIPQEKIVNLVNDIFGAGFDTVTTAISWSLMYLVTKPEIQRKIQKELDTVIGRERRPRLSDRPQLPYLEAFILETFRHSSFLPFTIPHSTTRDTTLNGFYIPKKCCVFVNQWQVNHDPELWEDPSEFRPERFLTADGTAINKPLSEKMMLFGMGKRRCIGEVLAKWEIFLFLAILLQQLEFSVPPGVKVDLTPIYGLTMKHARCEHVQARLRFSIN
In words: CYP 1A2. It is filed as in vitro ADME.

Another data set addresses CYP 2C19 (Homo sapiens, UniProt P33261). As to the kind of experiment: CYP 2C19. It is filed as in vitro ADME.
For the next data set, the target named is CYP 2D6 (Homo sapiens, UniProt P10635). As to the kind of experiment: CYP 2D6. It is filed as in vitro ADME.
The next data set is described as follows: Hepatocytes Clint (m). It is filed as in vitro ADME. Particulars: mouse.

Values after ≈ are worked out from the molar mass of the structure shown.

Usually efflux ratio stands for a quotient of directional permeabilities that is used to spot active efflux. What is called Papp A→B is the apparent permeability from the apical to the basolateral side of a cell layer. A high value points to ready permeation. By hepatocyte CLint is commonly meant the capacity of the preparation to metabolise the compound, expressed as a volume cleared per time. A low value points to greater metabolic stability. As usually defined, the chromatographic logD is a lipophilicity value derived from retention on a column. The low end stands for lower lipophilicity, the high end for higher lipophilicity. Broadly, the kinetic solubility is the concentration staying in solution when a stock, usually in DMSO, is diluted into the medium.

Sequence of CYP 3A4 (P08684 whole entry, species assumed): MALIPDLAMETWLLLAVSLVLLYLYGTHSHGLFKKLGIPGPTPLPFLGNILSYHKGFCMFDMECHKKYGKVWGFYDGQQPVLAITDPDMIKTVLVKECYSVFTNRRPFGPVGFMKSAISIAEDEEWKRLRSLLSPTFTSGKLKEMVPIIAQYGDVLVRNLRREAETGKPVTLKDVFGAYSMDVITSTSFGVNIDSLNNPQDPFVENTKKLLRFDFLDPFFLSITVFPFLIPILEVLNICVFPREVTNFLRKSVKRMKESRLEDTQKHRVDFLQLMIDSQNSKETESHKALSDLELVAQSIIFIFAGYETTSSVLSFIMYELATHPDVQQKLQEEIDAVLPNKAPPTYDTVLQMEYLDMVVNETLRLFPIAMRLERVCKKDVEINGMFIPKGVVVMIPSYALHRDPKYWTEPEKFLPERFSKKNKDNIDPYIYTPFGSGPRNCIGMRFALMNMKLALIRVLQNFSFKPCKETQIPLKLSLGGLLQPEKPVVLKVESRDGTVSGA
Sequence of CYP 2C19 (P33261 whole entry): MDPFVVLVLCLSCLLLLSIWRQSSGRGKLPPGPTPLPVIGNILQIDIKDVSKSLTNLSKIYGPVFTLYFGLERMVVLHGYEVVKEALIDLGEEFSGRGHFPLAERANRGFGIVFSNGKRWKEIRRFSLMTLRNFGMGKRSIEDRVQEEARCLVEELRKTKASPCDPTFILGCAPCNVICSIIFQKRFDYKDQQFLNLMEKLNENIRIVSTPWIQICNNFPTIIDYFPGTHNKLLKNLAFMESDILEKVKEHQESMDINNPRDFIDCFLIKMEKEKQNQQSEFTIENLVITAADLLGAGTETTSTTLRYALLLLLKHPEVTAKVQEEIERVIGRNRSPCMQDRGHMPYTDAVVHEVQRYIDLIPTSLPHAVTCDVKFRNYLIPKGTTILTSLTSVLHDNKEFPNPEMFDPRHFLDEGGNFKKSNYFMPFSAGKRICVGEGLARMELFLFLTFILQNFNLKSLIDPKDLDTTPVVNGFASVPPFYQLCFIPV
Sequence of CYP 2D6 (P10635 whole entry): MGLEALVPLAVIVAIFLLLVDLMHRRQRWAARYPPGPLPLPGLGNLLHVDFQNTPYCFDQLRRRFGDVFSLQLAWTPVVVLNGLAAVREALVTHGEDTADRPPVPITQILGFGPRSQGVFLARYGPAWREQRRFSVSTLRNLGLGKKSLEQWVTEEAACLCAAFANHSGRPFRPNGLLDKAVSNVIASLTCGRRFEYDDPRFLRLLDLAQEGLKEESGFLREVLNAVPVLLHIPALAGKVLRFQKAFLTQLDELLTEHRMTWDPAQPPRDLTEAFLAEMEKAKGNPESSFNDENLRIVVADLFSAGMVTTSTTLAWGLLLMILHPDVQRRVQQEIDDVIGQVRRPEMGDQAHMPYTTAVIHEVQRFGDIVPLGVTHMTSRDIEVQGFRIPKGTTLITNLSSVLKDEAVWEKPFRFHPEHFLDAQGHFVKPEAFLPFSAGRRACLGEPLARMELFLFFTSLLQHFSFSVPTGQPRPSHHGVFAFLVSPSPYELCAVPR
Sequence of CYP 2C9 (P11712 whole entry): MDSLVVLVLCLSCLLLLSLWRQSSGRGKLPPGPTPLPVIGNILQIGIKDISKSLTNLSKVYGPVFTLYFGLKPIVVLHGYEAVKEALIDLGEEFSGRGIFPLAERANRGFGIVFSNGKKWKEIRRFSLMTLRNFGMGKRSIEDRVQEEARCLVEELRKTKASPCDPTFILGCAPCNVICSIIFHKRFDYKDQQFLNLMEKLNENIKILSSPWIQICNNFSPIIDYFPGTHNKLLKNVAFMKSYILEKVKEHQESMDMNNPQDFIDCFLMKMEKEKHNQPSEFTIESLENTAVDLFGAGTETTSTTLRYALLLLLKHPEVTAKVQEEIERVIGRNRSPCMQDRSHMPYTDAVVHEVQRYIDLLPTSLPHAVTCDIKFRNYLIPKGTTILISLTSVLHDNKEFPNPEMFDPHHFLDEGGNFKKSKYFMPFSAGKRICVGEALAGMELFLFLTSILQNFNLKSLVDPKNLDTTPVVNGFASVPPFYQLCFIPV
Sequence of hERG (Q12809 whole entry): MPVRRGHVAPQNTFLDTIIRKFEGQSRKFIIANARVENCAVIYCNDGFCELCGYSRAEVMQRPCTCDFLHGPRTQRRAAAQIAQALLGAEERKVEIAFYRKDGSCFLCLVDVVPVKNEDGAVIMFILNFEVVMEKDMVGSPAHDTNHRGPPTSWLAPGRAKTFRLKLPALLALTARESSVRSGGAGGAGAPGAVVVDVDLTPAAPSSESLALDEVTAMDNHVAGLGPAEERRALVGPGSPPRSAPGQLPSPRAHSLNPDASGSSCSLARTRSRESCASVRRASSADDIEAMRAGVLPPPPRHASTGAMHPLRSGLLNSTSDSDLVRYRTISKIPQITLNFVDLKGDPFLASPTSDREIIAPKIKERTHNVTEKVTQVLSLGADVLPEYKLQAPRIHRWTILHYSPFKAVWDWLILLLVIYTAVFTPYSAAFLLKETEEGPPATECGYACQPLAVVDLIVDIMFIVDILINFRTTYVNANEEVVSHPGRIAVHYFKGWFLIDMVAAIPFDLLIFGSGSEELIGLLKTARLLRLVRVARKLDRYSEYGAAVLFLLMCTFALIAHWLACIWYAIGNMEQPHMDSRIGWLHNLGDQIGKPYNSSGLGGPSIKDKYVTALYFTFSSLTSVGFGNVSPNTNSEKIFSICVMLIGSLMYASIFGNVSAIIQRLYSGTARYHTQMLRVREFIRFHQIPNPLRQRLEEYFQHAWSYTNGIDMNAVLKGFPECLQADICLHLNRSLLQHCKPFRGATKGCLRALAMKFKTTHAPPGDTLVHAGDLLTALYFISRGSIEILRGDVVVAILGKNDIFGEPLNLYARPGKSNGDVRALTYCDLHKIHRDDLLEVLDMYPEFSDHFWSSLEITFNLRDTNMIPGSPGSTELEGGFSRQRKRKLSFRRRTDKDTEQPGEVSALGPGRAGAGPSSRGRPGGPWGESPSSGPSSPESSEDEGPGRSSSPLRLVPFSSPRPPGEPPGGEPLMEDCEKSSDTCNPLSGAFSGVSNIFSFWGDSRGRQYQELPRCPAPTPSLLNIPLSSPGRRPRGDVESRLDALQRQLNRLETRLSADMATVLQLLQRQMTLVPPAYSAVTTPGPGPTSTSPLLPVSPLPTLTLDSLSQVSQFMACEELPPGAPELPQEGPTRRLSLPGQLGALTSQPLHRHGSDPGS

Consider `O=c1[nH]cccc1-c1nc2c(c(OCCc3c[nH]c4ccccc34)n1)OCCN2` [Example 25, 3-(4-(2-(1H-indol-3-yl)ethoxy)-7,8-dihydro-6H-pyrimido[5,4-b][1,4]oxazin-2-yl)pyridin-2(1H)-one], for which the IC50 on CYP 2C9 was 4700 nM; against CYP 3A4, 7200 nM; on AhR [2] it was 2.69 nM; on AhR [3], 1.7 nM; at hERG, 7300 nM; at CYP 1A2, 45300 nM. Further, the IC50 against CYP 2C19 was found to be 43400 nM; against CYP 2D6, 50000 nM. For the same molecule, the “fold difference (3A4/U937)” value at CYP 3A4 (CYP 3A4 versus U937) is given as 1986. Also, the efflux ratio in data set [1] was 4. This molecule registered a Papp A→B in data set [1] (A to B) of 7.16 ×10⁻⁶ cm/s. The results for the hepatocyte CLint in the data set “Hepatocytes Clint (Hu)” and in “Hepatocytes Clint (m)” were 7.1 µL/min/1e6 cells and 115 µL/min/1e6 cells, respectively. The molecule also returned a chromatographic logD in the data set “ChromLogD” of 2.39. This molecule returned a kinetic solubility in “Kinetic solubility” of 119 µM (≈ 46.3 µg/mL).

Consider `COC[C@@H]1COc2c(NCCc3c[nH]c4ccccc34)nc(-c3cccc(F)c3)nc2N1` [Example 57, (7R)-2-(3-fluorophenyl)-N-[2-(1H-indol-3-yl)ethyl]-7-(methoxymethyl)-7,8-dihydro-6H-pyrimido[5,4-b][1,4]oxazin-4-amine], for which the IC50 at AhR [2] is 3.09 nM; on AhR [3] it was 2 nM.

For `COC[C@@H]1COc2c(NCCc3c[nH]c4ccccc34)nc(-c3cnc(C)s3)nc2N1` [Example 59, (7R)—N-[2-(1H-indol-3-yl)ethyl]-7-(methoxymethyl)-2-(2-methylthiazol-5-yl)-7,8-dihydro-6H-pyrimido[5,4-b][1,4]oxazin-4-amine], the IC50 is 3.8 nM on AhR [2] and 3.24 nM on AhR [3].

`Cc1ncc(-c2nc(NCCc3c[nH]c4ccccc34)c3c(n2)N[C@H](CO)CO3)s1` [Example 60, [(7R)-4-[2-(1H-indol-3-yl)ethylamino]-2-(2-methylthiazol-5-yl)-7,8-dihydro-6H-pyrimido[5,4-b][1,4]oxazin-7-yl]methanol]: the IC50 was 4.27 nM on AhR [2] and 7.41 nM on AhR [3].

`O=c1[nH]cccc1-c1nc2c(c(N[C@@H]3CCc4[nH]c5ccccc5c4C3)n1)OCCN2` [Example 63, 3-[4-[[(3R)-2,3,4,9-tetrahydro-1H-carbazol-3-yl]amino]-7,8-dihydro-6H-pyrimido[5,4-b][1,4]oxazin-2-yl]-1H-pyridin-2-one]: the figures for the IC50 at AhR [2] and at AhR [3] were 93.3 nM and 158 nM, respectively.

On to `COc1ncccc1-c1nc2c(c(NCCc3c[nH]c4ccccc34)n1)OCCN2` [Example 64, N-[2-(1H-indol-3-yl)ethyl]-2-(2-methoxy-3-pyridyl)-7,8-dihydro-6H-pyrimido[5,4-b][1,4]oxazin-4-amine], for which the IC50 on AhR [2] is 61.7 nM; on AhR [3], 145 nM.

`O=c1[nH]cc(F)cc1-c1nc2c(c(NCCc3c[nH]c4ccccc34)n1)OCCN2` [Example 66, 3-(4-((2-(1H-indol-3-yl)ethyl)amino)-7,8-dihydro-6H-pyrimido[5,4-b][1,4]oxazin-2-yl)-5-fluoropyridin-2-ol]: the figures for the IC50 at AhR [2] and on AhR [3] were 1.02 nM and 0.324 nM, respectively.

As to `O=c1[nH]cc(F)cc1-c1nc2c(c(NCCc3c[nH]c4cc(F)ccc34)n1)OCCN2` [Example 70, 5-fluoro-3-(4-((2-(6-fluoro-1H-indol-3-yl)ethyl)amino)-7,8-dihydro-6H-pyrimido[5,4-b][1,4]oxazin-2-yl)pyridin-2 (1H)-one], the IC50 at AhR [2] was 1.58 nM; at AhR [3], 0.646 nM.

As for `O=c1[nH]cc(F)cc1-c1nc2c(c(N[C@@H]3CCc4[nH]c5ccccc5c4C3)n1)OCCN2` [Example 71, (R)-5-fluoro-3-(4-((2,3,4,9-tetrahydro-1H-carbazol-3-yl)amino)-7,8-dihydro-6H-pyrimido[5,4-b][1,4]oxazin-2-yl)pyridin-2(1H)-one], the figures for the IC50 on AhR [2] and on AhR [3] were 126 nM and 69.2 nM, respectively.
